In the assay the target is T1, B1R of the rat (Rattus norvegicus, UniProt P97583).
T1 construct: expressed in transfected cells; host or cells: CHO K1 cells (Chinese hamster ovary), stably transfected
T1 sequence (P97583 1-337): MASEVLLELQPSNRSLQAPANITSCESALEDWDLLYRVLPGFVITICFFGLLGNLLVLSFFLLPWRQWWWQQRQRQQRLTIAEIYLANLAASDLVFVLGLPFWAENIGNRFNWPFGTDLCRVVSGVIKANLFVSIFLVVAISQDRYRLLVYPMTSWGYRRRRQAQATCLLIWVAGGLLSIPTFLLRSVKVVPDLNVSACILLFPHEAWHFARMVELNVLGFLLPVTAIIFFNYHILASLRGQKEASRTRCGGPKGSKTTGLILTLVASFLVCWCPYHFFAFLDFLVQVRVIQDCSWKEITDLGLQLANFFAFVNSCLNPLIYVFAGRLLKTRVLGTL
The assay can be described thus: FLIPR Ca2+ functional assay, B1R antagonism, rat B1R in CHO K1 cells. The format is cell-based. To be noted: test substance 10 μM; rB1R CHO K1 cells; agonist Des-Arg9 bradykinin at EC80; % of maximum achievable inhibition. The method, then:
The agonistic or antagonistic action of substances on the bradykinin 1 receptor (B1R) of the human and rat species can be quantified with ectopically expressing cell lines (CHO K1 cells) and with the aid of a Ca^2+-sensitive dye (Fluo-4) using a fluorescent imaging plate reader (FLIPR). The value in % activation is based on the Ca^2+ signal after addition of Lys-Des-Arg^9 bradykinin (0.5 nM) or Des-Arg^9 bradykinin (100 nM). Antagonists lead to a suppression of the Ca^2+ influx following administration of the agonist. The % inhibition in comparison with the maximum achievable inhibition is indicated.
1. Functional Investigation on the Bradykinin 1 Receptor (B1R) The agonistic or antagonistic action of substances can be determined on the bradykinin 1 receptor (B1R) of the human and rat species with the following assay. According to this assay, the Ca^2+ inflow through the channel is quantified with the aid of a Ca^2+-sensitive dye (Fluo-4 type, Molecular Probes Europe BV, Leiden, Netherlands) in a fluorescent imaging plate reader (FLIPR, Molecular Devices, Sunnyvale, USA). 2. Method: Chinese hamster ovary cells (CHO K1 cells) which are stably transfected with the human B1R gene (hB1R cells) or the B1R gene of the rat (rB1R cells) are used. For functional investigations these cells are plated-out onto black 96-well plates with a clear base (BD Biosciences, Heidelberg, Germany or Greiner, Frickenhausen, Germany) in a density of 20,000-35,000 cells/well. Overnight the cells are incubated at 37° C. and 5% CO2 in culture medium (hB1R cells: Ham's Nutrient Mixture F12, Gibco Invitrogen GmbH, Karlsruhe, Germany or DMEM, Sigma-Aldrich, Taufkirchen, Germany; rB1R cells: D-MEM/F12, Gibco Invitrogen, Karlsruhe, Germany) with 10 vol. % FBS (foetal bovine serum, Gibco Invitrogen GmbH, Karlsruhe, Germany or PAN Biotech GmbH, Aidenbach, Germany).
On the following day the cells are loaded with 2.13 μM Fluo-4 (Molecular Probes Europe BV, Leiden, Netherlands) in HBSS buffer (Hank's buffered saline solution, Gibco Invitrogen GmbH, Karlsruhe, Germany) with 2.5 mM probenecid (Sigma-Aldrich, Taufkirchen, Germany) and 10 mM HEPES (Sigma-Aldrich, Taufkirchen, Germany) for 60 min at 37° C. The plates are subsequently washed twice with HBSS buffer, and HBSS buffer which additionally contains 0.1% BSA (bovine serum albumin; Sigma-Aldrich, Taufkirchen, Germany), 5.6 mM glucose and 0.05% gelatine (Merck KGaA, Darmstadt, Germany) is added. After a further incubation of 20 minutes at RT, the plates are inserted into the FLIPR for Ca^2+ measurement. Alternatively they are washed with buffer A (15 mM HEPES, 80 mM NaCl, 5 mM KCl, 1.2 mM CaCl2, 0.7 mM MgSO4, 2 g/l glucose, 2.5 mM probenecid) and loaded with buffer A with added 2.5 μM Fluo-4 and 0.025% Pluronic F127 (Sigma-Aldrich, Taufkirchen, Germany). The cells are then washed twice with buffer A and incubated for 30 minutes with buffer A, which additionally contains 0.05% BSA and 0.05% gelatine, at RT and then used for Ca^2+ measurement in the FLIPR. The Ca^2+-dependent fluorescence is measured here before and after addition of substances (λex=488 nm, λem=540 nm). The quantification is performed by measuring the highest fluorescence intensity (FC, fluorescence counts) over time.
The FLIPR protocol comprises two additions of substance. Test substances (10 μM) are first pipetted onto the cells and the Ca^2+ inflow is compared with the control (hB1R: Lys-Des-Arg^9 bradykinin >=50 nM; rB1R: Des-Arg^9 bradykinin 10 μM). The value in % activation based on the Ca^2+ signal after addition of Lys-Des-Arg^9 bradykinin (>=50 nM) or Des-Arg^9 bradykinin (10 μM) is obtained therefrom. After incubation for 10-20 minutes, Lys-Des-Arg^9 bradykinin (hB1R) or Des-Arg^9 bradykinin (rB1R) is applied in the EC80 concentration and the inflow of Ca^2+ is likewise determined.
Antagonists lead to a suppression of the Ca^2+ inflow. The % inhibition in comparison with the maximum achievable inhibition is calculated. […]

The structures appear in SMILES notation.

What is called inhibition is how much of the control response was suppressed. `Cc1cccc(Cl)c1S(=O)(=O)N1CCn2cccc2C1CC(=O)NC(CN1CCN(C)CC1)c1ccccc1` (stereo not shown) [Example 156, 2-[2-[(2-Chloro-6-methyl-phenyl)sulfonyl]-1,2,3,4-tetrahydro-pyrrolo[1,2-a]pyrazin-1-yl]-N-[2-(4-methyl-piperazin-1-yl)-1-phenyl-ethyl]-acetamide]: the inhibition at 10 µM was 95.1%.

The molecule `Cc1cccc(Cl)c1S(=O)(=O)N1CCn2cccc2C1CC(=O)NC1CCN(Cc2ccccc2)C1` (stereo not shown) [Example 157, N-(1-Benzyl-pyrrolidin-3-yl)-2-[2-[(2-chloro-6-methyl-phenyl)sulfonyl]-1,2,3,4-tetrahydro-pyrrolo[1,2-a]pyrazin-1-yl]-acetamide] returned an inhibition at 10 µM of 69.5%.

In turn, `Cc1cccc(Cl)c1S(=O)(=O)N1CCn2cccc2C1CC(=O)N1CCN(c2ccccc2F)CC1` (stereo not shown) [Example 158, 2-[2-[(2-Chloro-6-methyl-phenyl)sulfonyl]-1,2,3,4-tetrahydro-pyrrolo[1,2-a]pyrazin-1-yl]-1-[4-(2-fluorophenyl)-piperazin-1-yl]-ethanone] came in with an inhibition at 10 µM of 32%.

`Cc1cccc(Cl)c1S(=O)(=O)N1CCn2cccc2C1CC(=O)N1CCC(N2CCOCC2)CC1` (stereo not shown) [Example 159, 2-[2-[(2-Chloro-6-methyl-phenyl)sulfonyl]-1,2,3,4-tetrahydro-pyrrolo[1,2-a]pyrazin-1-yl]-1-(4-morpholin-4-yl-piperidin-1-yl)-ethanone]: the inhibition at 10 µM amounted to 3.48%.

`Cc1cccc(Cl)c1S(=O)(=O)N1CCn2cccc2C1CC(=O)N1CCC(N2CCCCC2)CC1` (stereo not shown) [Example 160, 2-[2-[(2-Chloro-6-methyl-phenyl)sulfonyl]-1,2,3,4-tetrahydro-pyrrolo[1,2-a]pyrazin-1-yl]-1-(4-piperidin-1-yl-piperidin-1-yl)-ethanone]: 10 µM produced 42.8% inhibition.

In the case of `Cc1cccc(Cl)c1S(=O)(=O)N1CCn2cccc2C1CC(=O)N1CCC(N2CCN(C)CC2)CC1` (stereo not shown) [Example 161, 2-[2-[(2-Chloro-6-methyl-phenyl)sulfonyl]-1,2,3,4-tetrahydro-pyrrolo[1,2-a]pyrazin-1-yl]-1-[4-(4-methyl-piperazin-1-yl)-piperidin-1-yl]-ethanone], the inhibition at 10 µM was 10.5%.

As for `Cc1cccc(Cl)c1S(=O)(=O)N1CCn2cccc2C1CC(=O)N1CCN(c2ncccn2)CC1` (stereo not shown) [Example 162, 2-[2-[(2-Chloro-6-methyl-phenyl)sulfonyl]-1,2,3,4-tetrahydro-pyrrolo[1,2-a]pyrazin-1-yl]-1-(4-pyrimidin-2-yl-piperazin-1-yl)-ethanone], at 10 µM the inhibition was 25.2%.

`Cc1ccc2[nH]c(C3CCN(C(=O)CC4c5cccn5CCN4S(=O)(=O)c4c(C)cccc4Cl)CC3)nc2c1` (stereo not shown) [Example 163, 2-[2-[(2-Chloro-6-methyl-phenyl)sulfonyl]-1,2,3,4-tetrahydro-pyrrolo[1,2-a]pyrazin-1-yl]-1-[4-(5-methyl-1H-benzoimidazol-2-yl)-piperidin-1-yl]-ethanone] yielded an inhibition at 10 µM of 39.7%.

`Cc1cccc(Cl)c1S(=O)(=O)N1CCn2cccc2C1CC(=O)N1CCCN(c2ncccc2C#N)CC1` (stereo not shown) [Example 164, 2-[4-[2-[2-[(2-Chloro-6-methyl-phenyl)sulfonyl]-1,2,3,4-tetrahydro-pyrrolo[1,2-a]pyrazin-1-yl]-acetyl]-[1,4]diazepan-1-yl]-pyridine-3-carbonitrile] gave an inhibition at 10 µM of 44.1%.

As for `Cc1cccc(Cl)c1S(=O)(=O)N1CCn2cccc2C1CC(=O)N1CCC(CCN2CCCCC2)CC1` (stereo not shown) [Example 165, 2-[2-[(2-Chloro-6-methyl-phenyl)sulfonyl]-1,2,3,4-tetrahydro-pyrrolo[1,2-a]pyrazin-1-yl]-1-[4-(2-piperidin-1-yl-ethyl)-piperidin-1-yl]-ethanone], at 10 µM the inhibition was 55.8%.

In turn, `Cc1cccc(Cl)c1S(=O)(=O)N1CCn2cccc2C1CC(=O)NCC1CCN(Cc2ccccc2)C1` (stereo not shown) [Example 166, N-[(1-Benzyl-pyrrolidin-3-yl)-methyl]-2-[2-[(2-chloro-6-methyl-phenyl)sulfonyl]-1,2,3,4-tetrahydro-pyrrolo[1,2-a]pyrazin-1-yl]-acetamide] returned an inhibition at 10 µM of 99.1%.

The molecule `O=C(CC1c2cccn2CCN1S(=O)(=O)c1ccccc1)N1CCC(O)(c2cccnc2)CC1` (stereo not shown) [Example 167, 2-[2-(Benzenesulfonyl)-1,2,3,4-tetrahydro-pyrrolo[1,2-a]pyrazin-1-yl]-1-(4-hydroxy-4-pyridin-3-yl-piperidin-1-yl)-ethanone] had an inhibition at 10 µM of 0.145%.

As for `O=C(CC1c2cccn2CCN1S(=O)(=O)c1ccccc1)NCCN1CCCC1` (stereo not shown) [Example 168, 2-[2-(Benzenesulfonyl)-1,2,3,4-tetrahydro-pyrrolo[1,2-a]pyrazin-1-yl]-N-(2-pyrrolidin-1-yl-ethyl)-acetamide], 10 µM produced 40.1% inhibition.

The molecule `CC1CCCC(C)N1CCCNC(=O)CC1c2cccn2CCN1S(=O)(=O)c1ccccc1` (stereo not shown) [Example 169, 2-[2-(Benzenesulfonyl)-1,2,3,4-tetrahydro-pyrrolo[1,2-a]pyrazin-1-yl]-N-[3-(2,6-dimethyl-piperidin-1-yl)-propyl]-acetamide] had an inhibition at 10 µM of 7.57%.

`CN1CCN(CC(NC(=O)CC2c3cccn3CCN2S(=O)(=O)c2ccccc2)c2ccccc2)CC1` (stereo not shown) [Example 170, 2-[2-(Benzenesulfonyl)-1,2,3,4-tetrahydro-pyrrolo[1,2-a]pyrazin-1-yl]-N-[2-(4-methyl-piperazin-1-yl)-1-phenyl-ethyl]-acetamide] displayed an inhibition at 10 µM of 68.4%.

Regarding `O=C(CC1c2cccn2CCN1S(=O)(=O)c1ccccc1)NC1CCN(Cc2ccccc2)C1` (stereo not shown) [Example 171, 2-[2-(Benzenesulfonyl)-1,2,3,4-tetrahydro-pyrrolo[1,2-a]pyrazin-1-yl]-N-(1-benzyl-pyrrolidin-3-yl)-acetamide], the inhibition at 10 µM turned out to be 24.4%.

The molecule `O=C(CC1c2cccn2CCN1S(=O)(=O)c1ccccc1)N1CCN(c2ccccc2F)CC1` (stereo not shown) [Example 172, 2-[2-(Benzenesulfonyl)-1,2,3,4-tetrahydro-pyrrolo[1,2-a]pyrazin-1-yl]-1-[4-(2-fluorophenyl)-piperazin-1-yl]-ethanone] yielded an inhibition at 10 µM of 14.1%.

Molecule `CCN1CCN(C(=O)CC2c3cccn3CCN2S(=O)(=O)c2ccccc2)CC1` (stereo not shown) [Example 173, 2-[2-(Benzenesulfonyl)-1,2,3,4-tetrahydro-pyrrolo[1,2-a]pyrazin-1-yl]-1-(4-ethyl-piperazin-1-yl)-ethanone] returned an inhibition at 10 µM of 9.74%.

`O=C(CC1c2cccn2CCN1S(=O)(=O)c1ccccc1)N1CCN(c2ccccc2)CC1` (stereo not shown) [Example 174, 2-[2-(Benzenesulfonyl)-1,2,3,4-tetrahydro-pyrrolo[1,2-a]pyrazin-1-yl]-1-(4-phenyl-piperazin-1-yl)-ethanone] returned an inhibition at 10 µM of 28%.
